According to article PMC5000474, “Discovery of a Carbazole-Derived Lead Drug for Human African Trypanosomiasis” (Scientific Reports, 2016):
Like-named read-outs stand apart in the source and are kept apart here.

Tests used:
[1] = system: bloodstream T. brucei; test: Trypanosome proliferation inhibition assay (GI50); format: cell-based, Trypanosoma brucei brucei; details: for Selectivity Index HL GI50/Tbb GI50: ratio between HeLa and T. brucei GI50
Protocol: T. brucei (brucei or rhodesiense) were seeded at 4 × 10^3 cells/mL in 24-well plates (0.5 or 1 mL of culture per well). […] Then, at least five drug concentrations[26] covering this range was used for subsequent assays. Each concentration was tested in duplicate. […] Cells were counted only if they were motile. […] Final mean GI50 values were calculated based on two independent experiments, each with at least five data points performed in duplicate. T. brucei were seeded at 4 × 10^3 cells/mL and dispensed into wells of a 384-well black plate (Greiner; Frickenhausen, Germany). Wells in two columns per plate were filled with 50 μL of HMI-9 medium using a Multidrop Combi (Thermo Scientific; Waltham, MA) to serve as a background control. Fifty microliters of trypanosome suspension was added to separate columns using a Multidrop Combi. Lastly, an additional 50 μL of cell resuspension was added to only the top row of wells that contained cells (row A, labeled by Greiner), using an Xplorer multichannel pipette (Eppendorf; Hamburg-Eppendorf, Germany) bringing final volumes of cell-containing wells in the top row to 100 μL. […] St. Louis, MO). A microliter of DMSO (25%) or diluted drug was added to wells containing cells of the top row using an Xplorer multichannel pipette. Each concentration was tested in duplicate. Cells and DMSO/drug were mixed and serially diluted 1:2 down the rows of the plate. […] Cells were lysed by addition of 15 μL of SYBR Green I (Invitrogen; Carlsbad, CA) in lysis solution[30] (5X SYBR Green I, 30 mM Tris pH 7.5, 7.5 mM EDTA, 0.012% saponin and 0.12% Triton X-100) to each well. […] Data collected was exported to Excel from Ascent Software (Thermo Scientific). Base-line corrected non-linear regression graphs were generated and GI50 values determined using GraphPad Prism (GraphPad Software; La Jolla, CA). Final mean GI50 values were calculated based on four separate biological replicates.

[2] = system: T. b. rhodesiense; test: Trypanosome proliferation inhibition assay (GI50), T. b. rhodesiense; format: cell-based; details: Trypanosoma brucei, 4 × 10^3 cells/mL, 24-well plates, 48 h, read-out: Growth inhibition (GI50) ± SD T. b. rhodesiense
Protocol: T. brucei (brucei or rhodesiense) were seeded at 4 × 10^3 cells/mL in 24-well plates (0.5 or 1 mL of culture per well). […] Compounds were initially tested at 10 nM, 100 nM or 1 μM, to define a range where cell density responded to drug concentrations. Then, at least five drug concentrations[26] covering this range was used for subsequent assays. Each concentration was tested in duplicate. Cell density was determined with a Neubauer Bright-Line hemocytometer (Sigma) after 48 h. Cells were counted only if they were motile. […] Final mean GI50 values were calculated based on two independent experiments, each with at least five data points performed in duplicate.

[3] = system: HeLa cells; test: HeLa cell proliferation inhibition assay (GI50); format: cell-based; details: Homo sapiens; HeLa 1 × 10^5 cells/mL, 24 h with compound; read-out: Growth inhibition (GI50) ± SD HeLa
Protocol: HeLa cells were seeded to 1 × 10^5 cells/mL in 24-well plates (1 mL of culture per well) and incubated drug-free for 24 h at 37 °C, 5% CO2. DMSO or stock inhibitor concentration (5 μL) was added to obtain the specified final concentrations. Cells were incubated for 24 h[28][29] at 37 °C, 5% CO2. Next, cells were trypsinized and cell density was determined with a Neubauer Bright-line hemocytometer as described[9]. GI50 for each compound was calculated by plotting data for the cell counts in Excel as described for T. brucei above. Data were obtained from two independent experiments, four separate biological replicates.

[4] = system: T. brucei; test: Mouse model of HAT: oral treatment of T. brucei-infected mice; format: in vivo, Trypanosoma brucei brucei; details: for survival of infected mice compared to control untreated animals: administered orally; for reduction of parasitemia: day six, after full oral dose days two to five (2: 20 mg/kg, 3: 25 mg/kg); for increase in average survival: infected mice treated orally, versus vehicle (5 days on average); for cure of T. brucei infection in mice: oral administration
Protocol: Cultured T. brucei were pelleted and resuspended in cold phosphate buffered saline (PBS) containing 1% glucose at 1 × 10^5 cells/mL. Female Swiss-Webster mice (8–10 weeks old, 20–25 g, n = 4 per group) (Harlan; Indianapolis, IN) were infected intraperitoneally (i.p.) with 10^4 bloodstream trypanosomes in 100 μL of PBS using 26G needles. To avoid damage to T. brucei cells, mechanical stress during administration was minimized by avoiding repeated pulling and pushing movements of cell resuspension through the syringe needle. Starting 48 h post-infection, and every 1–8 days thereafter, parasitemia was monitored by collecting 3 μL of blood from the tail vein of mice. Blood samples were supplemented with 21 μL of RBC Lysis Solution (Qiagen; Valencia, CA) and incubated at room temperature for 15–45 min. prior to observing for parasites using a Neubauer Bright-line hemocytometer. Mice with parasitemia greater than 2 × 10^8 trypanosomes/mL were euthanized. […] To compare animal survival in treatment and vehicle control groups, Student’s t-test was performed in Excel to generate p-values. All animal experiments were conducted with the approval of the Institutional Animal Care and Use Committee (IACUC) at the University of Georgia. All experimental protocols involving animals were carried out in accordance with the approved guidelines of the IACUC at the University of Georgia.
Formulated compounds or vehicle control (0.2% HPMC) were administered by oral gavage starting 24 h after mouse infection with T. brucei. Animals were weighed before each compound administration, and dose volume was adjusted based on body weight (10 mL/kg) to deliver accurate doses of test compounds. The treatment was ceased for animals when normalized body weight (NBW) loss exceeded 20%, and resumed after NBW recovery above 90%. […] 1: 30 mg/kg or 40 mg/kg, treatment regimen of “4 days on/2 days off” for a total of 14 doses; 2: 20 mg/kg (days 2–5), 10 mg/kg (day 7), 5 mg/kg (days 8–9), no drug (day 6, days 10–13); 3: 25 mg/kg (days 2–5), 12.5 mg/kg (day 7), 6.25 mg/kg (days 8–10), no drug (day 6, days 11–13). Scheduled euthanasia by CO2 overdose followed by incision to form a bilateral pneumothorax was conducted on mice considered cured 30 days after the end of experimental treatment (see previous section). Mice with parasitemia greater than 2 × 10^8 trypanosomes/mL or NBW losses ≥30% were subjected to unscheduled euthanasia.

[5] = Normalized body weight of treated T. brucei-infected mice; format: in vivo; details: oral 2 (20 mg/kg) or 3 (25 mg/kg)
Protocol: Formulated compounds or vehicle control (0.2% HPMC) were administered by oral gavage starting 24 h after mouse infection with T. brucei[33][34]. Animals were weighed before each compound administration, and dose volume was adjusted based on body weight (10 mL/kg) to deliver accurate doses of test compounds. The treatment was ceased for animals when normalized body weight (NBW) loss exceeded 20%, and resumed after NBW recovery above 90%. […] 1: 30 mg/kg or 40 mg/kg, treatment regimen of “4 days on/2 days off” for a total of 14 doses; 2: 20 mg/kg (days 2–5), 10 mg/kg (day 7), 5 mg/kg (days 8–9), no drug (day 6, days 10–13); 3: 25 mg/kg (days 2–5), 12.5 mg/kg (day 7), 6.25 mg/kg (days 8–10), no drug (day 6, days 11–13). Scheduled euthanasia by CO2 overdose followed by incision to form a bilateral pneumothorax was conducted on mice considered cured 30 days after the end of experimental treatment (see previous section). Mice with parasitemia greater than 2 × 10^8 trypanosomes/mL or NBW losses ≥30% were subjected to unscheduled euthanasia.

[6] = ref Cleveland BioLabs, unpublished data; cited from earlier work
[7] = system: T. brucei; test: Thirty-hour treatment of trypanosomes: cell density, kinetoplast/nucleus copy number, DNA content; format: cell-based, Trypanosoma brucei brucei; details: 200 nM
Protocol: At stated times trypanosome density was determined using a Z2 Coulter Counter (Beckman). […] At the same time-points a 5 mL aliquot (5 × 10^5–1 × 10^7 cells total) was collected and analyzed by flow cytometry as described below. All data reported were obtained from three independent experiments.
T. brucei (between 5 × 10^5 cells to 1 × 10^7 cells) in 5 mL of culture medium were centrifuged (3 min, 3000 × g at room temperature) to pellet cells and washed once with 1 mL of PBS containing 10 mM glucose. Cells were fixed in 1 mL of 70% methanol supplemented by PBS at 4 °C for up to two weeks, centrifuged (3 min, 2000 × g at room temperature), and resuspended at 5 × 10^5 cells/mL in 1X PBS. RNase A and propidium iodide (PI) were added to each sample to final concentrations of 500 μg/mL and 7.5 μM, respectively, and the suspension was protected from light during incubation for 1 h at 37 °C[35]. Samples were placed on ice for 15 min and data was immediately collected on a CyAn ADP Analyzer (Beckman Coulter; Hialeah, FL). During analysis with FlowJo software (FlowJo, LLC; Ashland, OR), trypanosomes were gated from background debris by plotting “events” as forward scatter vs. side scatter (both on the logarithmic scale). Single trypanosomes were gated for cell cycle analysis from cells stuck together (“doublets”) by plotting trypanosome events as PI fluorescence vs. pulse width. Distribution of trypanosomes into groups containing different amounts of chromosomal DNA was performed using Watson-Pragmatic algorithm in FlowJo. DNA distribution values from independent experiments were averaged with error bars generated and graphed in Excel. To compare effects of drug treatment on DNA content of experimental and vehicle control groups, Student’s t-test was performed in Excel to generate p-values.

[8] = Trypanosoma brucei, 48 h, T. brucei 4 × 10^3 cells/mL, 48 h, Fig. 1, read-out: GI50
[9] = Trypanosoma brucei, against T. brucei, read-out: GI50
[10] = Trypanosoma brucei, 48 h, 4 × 10^3 cells/mL, 24-well plates, 48 h, Table 1, read-out: Growth inhibition (GI50) ± SD T. b. brucei

Compound `CCCNCCCn1c2ccc(C(C)=O)cc2c2c3c(ccc21)C(=O)CC3` [CBL0175] has a GI50 [1, 8] of 9.5 ± 1.4 nM.
`O=C1CCc2c1ccc1c2c2c3c(ccc2n1CCN1CCOCC1)C(=O)CC3` [CBL0207] showed a GI50 [1, 8] of 17 ± 0.2 nM.
With `CC(=O)c1ccc2c(c1)c1cc(C(C)=O)ccc1n2CCC1CCCN1C` (stereo not shown) [CBL0053] the GI50 [1, 8] was 58 ± 5.3 nM.
Compound `CC(=O)c1ccc2c(c1)c1cc(C(C)=O)ccc1n2CCCN(C)C` [CBL0031] has a GI50 [1, 8] of 260 ± 0.64 nM.
`CCNCCCn1c2ccc3c(c2c2c4c(ccc21)C(=O)CC4)CCC3=O` [CBL0198] gave a GI50 [1, 8] of 2.8 ± 0.49 nM.
In the case of `CC(=O)c1cc2c3cc(C(C)=O)c(O)cc3n(CCNC(C)C)c2cc1O` [CBL0187], the GI50 [1, 8] is reported as 33 ± 2.1 nM.
Work on `CC(C)NCCn1c2ccc3c(c2c2c4c(ccc21)C(=O)CC4)CCC3=O` [CBL0197] yielded a GI50 [1, 8] of 0.95 ± 0.05 nM.
In the case of `CCN(CC)CCCC(C)n1c2ccc3c(c2c2c4c(ccc21)C(=O)CC4)CCC3=O` (stereo not shown) [CBL0100Q], the GI50 [1, 8] is reported as 240 ± 2 nM.
For `CCN(CC)CCn1c2ccccc2c2cnccc21` [CBL0139], the GI50 [1, 9] was over 10000 nM.
With `CCCNCCCn1c2ccc3c(c2c2c4c(ccc21)C(=O)CC4)CCC3=O` [Compound 3] the GI50 [1, 10] was 2.2 ± 0.1 nM, the GI50 [1, 8] was under 10 nM and the “Selectivity Index HL GI50/Tbb GI50” value [1] was 236. The GI50 [2] was 3.6 ± 0.3 nM, the GI50 [3] was 520 ± 40 nM and the “survival of infected mice compared to control untreated animals” value [4] was “increased survival”. The reduction of parasitemia [4] was 100 fold, the “increase in average survival” value [4] was 2 fold and the “cure of T. brucei infection in mice” value [4] was “failed to cure”. The “weight loss of normal body weight (NBW)” value [5] was “exceeding 10%” and the oral bioavailability [6] was “orally bioavailable”.
Work on `CN(C)CCCn1c2ccc3c(c2c2c4c(ccc21)C(=O)CC4)CCC3=O` [CBL0253] yielded a GI50 [1, 8] of 0.74 ± 0.27 nM.
For `CC(=O)c1ccc2c(c1)c1c3c(ccc1n2CCNC(C)C)C(=O)CC3` [CBL0252], the GI50 [1, 8] was 8.5 ± 0.22 nM.
In the case of `CCN(CC)CCn1c2ccc(C(C)=O)cc2c2cc(C(C)=O)ccc21` [CBL0014], the GI50 [1, 8] is reported as 76 ± 20 nM.
For `CC(=O)c1ccc2c(c1)c1cc(C(C)=O)ccc1n2CCCNC(C)C` [CBL0127], the GI50 [1, 8] was 170 ± 3 nM.
With `CC(=O)c1ccc2c(c1)c1c3c(ccc1n2CC[C@H]1CCCN1C)C(=O)CC3` [CBL0212] the GI50 [1, 8] was 8.2 ± 0.23 nM.
In the case of `CC(=O)c1cc2c3c4c(ccc3n(CCCN(C)C)c2cc1O)C(=O)CC4` [Compound 2], the GI50 [1, 10] is reported as 7.4 ± 0.2 nM, the GI50 [1, 8] is reported as under 10 nM and the “Selectivity Index HL GI50/Tbb GI50” value [1] is reported as 78. The GI50 [2] was 13 ± 3 nM, the GI50 [3] was 580 ± 100 nM and the “survival of infected mice compared to control untreated animals” value [4] was “increased survival”. For the same compound, the reduction of parasitemia [4] was 100 fold, the “increase in average survival” value [4] was 2 fold and the “cure of T. brucei infection in mice” value [4] was “failed to cure”. The “weight loss of normal body weight (NBW)” value [5] was “exceeding 10%” and the oral bioavailability [6] was “orally bioavailable”.
Compound `CN(C)CCCn1c2ccccc2c2cnccc21` [CBL0144] has a GI50 [1, 9] of over 10000 nM.
In the case of `CC[n+]1c(-c2ccccc2)c2cc(N)ccc2c2ccc(N)cc21` [ethidium bromide], the “formation of dyskinetoplastic trypanosomes (0K1N)” value ([7]; 30 h time-course) is reported as “produced dyskinetoplastic trypanosomes”, the “effect on nuclear DNA content compared to vehicle” value ([7]; 30 h treatment, flow cytometry) is reported as “little or no effect” and the “increase in cell density during 30 h treatment” value ([7]; T. brucei seeded 1 × 10^5 cells/mL) is reported as 2.5 fold.
Compound `CCOC(=O)N1CCC(n2c3ccc(C(C)=O)cc3c3cc(C(C)=O)ccc32)CC1` [CBL0149] has a GI50 [1, 8] of 5300 ± 1500 nM.
Work on `CCN(CC)CCn1c2ccc3c(c2c2c4c(ccc21)C(=O)CC4)CCC3=O` [CBL0100] yielded a GI50 [1, 8] of 0.97 ± 0.08 nM.
For `CC(=O)c1cc2c3cc(C(C)=O)c(O)cc3n(CCCN(C)C)c2cc1O` [CBL0174], the GI50 [1, 8] was 25 ± 1.9 nM.
`CON=C1CCc2c1ccc1c2c2c3c(ccc2n1CCN1CCOCC1)C(=NOC)CC3` [CBL0209] showed a GI50 [1, 8] of 460 ± 18 nM.
Compound `CCN(CC)CCn1c2ccc(C3=NCCN3)cc2c2cc(C3=NCCN3)ccc21` [CBL0030] has a GI50 [1, 8] of 1500 ± 210 nM.
`CC(=O)c1cc2c3c4c(ccc3n(CCCN(C)C)c2cc1O)C(=O)N(C)C4` [CBL0167] showed a GI50 ([1]; T. brucei 4 × 10^3 cells/mL, 48 h, Fig. 1, read-out: GI50) of 21 ± 2.9 nM and a GI50 [1, 8] of under 25 nM.
In the case of `CC(=O)c1ccc2c(c1)c1c3c(ccc1n2CC[C@@H]1CCCN1C)C(=O)CC3` [CBL0211], the GI50 [1, 8] is reported as 2.3 ± 0.58 nM.
`CCN(CC)CCn1c2ccc(C#N)cc2c2cc(C#N)ccc21` [CBL0018] showed a GI50 [1, 8] of 250 ± 20 nM.
